Measured values: PMC7529758, “Over-activation of a nonessential bacterial protease DegP as an antibiotic strategy” (Communications Biology, 2020)
≈ marks a conversion by molar mass, not a printed value. *1 amine or outer side, *2 acyl side, *3 side chain or, on linkers, in order; H or OH if unused. Where a SMILES comes first, the peptide text is derived from it. Bridges are numbered along the chain shown (N, C = ends). Roman numbers before positions name the chains, in order. TBMB = c1c(C[*:1])cc(C[*:3])cc1C[*:2]

What was measured:
E. coli imp4213 = experiment: microbe, parasite or virus in culture; type: cell-based, Escherichia coli; details: imp4213, 12 h, LB
Description: (§1) The susceptibility of E. coli to activators was analyzed by determining the MICs. Two-fold serial dilutions of activators in LB broth were added to bacteria (OD600 = 0.1) in 96-well plates. Plates were incubated with shaking at 30 or 42 °C. After 12 h of incubation, the MIC was defined as the lowest concentration of the activator to inhibit the growth of bacteria by using a micro-plate reader (Absorbance 600 nm, Infinite M200pro, Tecan). The assay was performed in triplicates.

DegP^S210A [1] = target: T1, DegP^S210A (Escherichia coli, UniProt P0C0V0, S236A); experiment: Fluorescence anisotropy binding assay
T1 construct: pET22b-degP(full length; S210A)_6His; 6His (C); made in house
T1 sequence (P0C0V0 27-474 S236A): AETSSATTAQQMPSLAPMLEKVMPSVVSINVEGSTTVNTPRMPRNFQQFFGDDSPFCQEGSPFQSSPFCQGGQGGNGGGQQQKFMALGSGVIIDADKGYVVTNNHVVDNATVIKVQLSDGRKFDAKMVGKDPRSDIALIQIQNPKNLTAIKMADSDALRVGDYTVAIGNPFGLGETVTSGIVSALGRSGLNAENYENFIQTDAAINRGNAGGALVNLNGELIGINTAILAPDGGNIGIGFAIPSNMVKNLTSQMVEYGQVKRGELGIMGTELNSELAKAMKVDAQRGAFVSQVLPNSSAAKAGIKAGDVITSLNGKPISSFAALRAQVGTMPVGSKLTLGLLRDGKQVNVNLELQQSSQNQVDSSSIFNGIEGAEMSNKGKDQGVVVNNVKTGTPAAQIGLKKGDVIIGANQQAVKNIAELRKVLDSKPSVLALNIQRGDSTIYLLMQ
Description: Fluorescence anisotropy assay was performed as previously described[14],[22]. Two-fold serial dilutions of activators were mixed with a fluorescence-labeled peptide (^flC18–58 or ^fl45–58, 50 nM; Oregon Green 488 maleimide, Invitrogen) and DegP^S210A (10 μM for ^flC18–58; 80 μM for ^fl45–58). Anisotropy was monitored by using a micro-plate reader (excitation 485 nm, emission 535 nm, Infinite F200pro, Tecan). The assay was performed in triplicates.

DegP^S210A [2] = target: T2, DegP^S210A (Escherichia coli, UniProt P0C0V0, C83S/C95S/N322C/S236A); experiment: FRET assay of DegP cage assembly; type: biochemical; details: FRET of donor- and acceptor-labeled DegP variants
T2 construct: pET22b-degP(full length; C57S/C69S/N296C/S210A)_6His; 6His (C); made in house; host or cells: E. coli (inferred from the pET plasmid)
T2 sequence (P0C0V0 27-474 C83S/C95S/S236A/N322C): as the sequence (P0C0V0 27-474 S236A) above, with C57S, C69S, N296C counted along it
Description: Fluorescence resonance energy transfer (FRET) assay was performed as previously described[14],[22]. Equimolar amounts of fluorescence donor- and acceptor-labeled DegP^S210A (total 0.1, 1 or 3 μM) was mixed in a buffer containing 50 mM sodium phosphate (pH 8) and 100 mM NaCl. Two-fold serial dilutions of activators were added to the DegP mixtures. Alexa Fluor 555 C2-maleinide and 647 C2-maleinide (life technologies) were used as fluorescence dyes. Cage assembly of DegP was monitored by increased FRET ratio using the micro-plate reader (excitation 520 nm, emission 570 or 670 nm, Infinite M200pro, Tecan). Assays were performed in triplicates.

E.coli imp4213 strain = type: cell-based, Escherichia coli; details: log-phase cells; 2x MIC; both 30 °C and 42 °C; CFU
Description: Time-kill experiment was performed by counting the viable bacteria at each time point. The E.coli imp4213 strain was cultured with streptomycin overnight and diluted 1:100 in fresh LB broth. When the OD600 value became 0.01, the activator was added at 2x MIC. The sample was incubated with shaking (180 rpm) at 30 °C or 42 °C, and aliquots were taken after 0, 1, 2, 4, 6, 8, 10, or 12 h. These aliquots were serially diluted (ten-fold) and plated on LB agar plates for colony counts. Experiments were performed in triplicates. The kill curves were plotted with the CFU/mL against time.
Experiments with cells in the stationary phase, however, were performed without dilution of the overnight culture.

DegP^WT = experiment: DegP activation assay with the reporter peptide; type: biochemical, Escherichia coli; details: reporter 100 μM
Description: DegP activation experiments were performed as previously described[14],[22]. All the in vitro assays were performed in a buffer containing 50 mM sodium phosphate (pH 8) and 100 mM NaCl. Two-fold serial dilutions of the activator were incubated with DegP^WT (1, 3, or 10 μM) for 5 min. After incubation, the reporter peptide (Abz-[…]^NO2D; Abz, 2-aminobenzoic acid; Y^NO2, 3-nitrotyrosine; 100 μM final) was added. DegP activation was monitored by increased fluorescence by using a micro-plate reader (excitation 320 nm, emission 430 nm; Infinite F200pro, Tecan). Assays were performed in triplicates.

[3] = system: wild-type Escherichia coli (W3110); experiment: Growth (OD600) of wild-type cells; type: cell-based; details: LB; OD600 after 12 h; 42 °C
Description: as §1

In the case of `CC(C)C[C@H](NC(=O)[C@H](CCCCN)NC(=O)[C@H](CCCNC(=N)N)NC(=O)[C@H](Cc1ccc(O)cc1)NC(=O)[C@@H](N)CSCc1cc(CSC[C@H](N)C(=O)N[C@@H](Cc2ccc(O)cc2)C(=O)N[C@@H](CCCNC(=N)N)C(=O)N[C@@H](CCCCN)C(=O)N[C@@H](CC(C)C)C(=O)O)cc(CSC[C@H](N)C(=O)N[C@@H](Cc2ccc(O)cc2)C(=O)N[C@@H](CCCNC(=N)N)C(=O)N[C@@H](CCCCN)C(=O)N[C@@H](CC(C)C)C(=O)O)c1)C(=O)O` [TMB_CYRKL] (I: H-CYRKL-OH / II: H-CYRKL-OH / III: H-CYRKL-OH; linker I:1-II:1-III:1 via TBMB), the MIC (E. coli imp4213; 30 °C) is reported as 320 µM (≈ 691 µg/mL), the MIC (E. coli imp4213; Fig. 3a and Supplementary Fig. 6b (30 °C and 42 °C)) is reported as 320 to 640 µM and the “concentrations that enhance binding of fl18-58” value (DegP^S210A [1]; DegPS210A 10 μM) is reported as 5~ 40 µM. For the same molecule, the “concentrations that interrupt the interaction of fl18-58” value (DegP^S210A [1]; DegPS210A 10 μM) was > 40 µM, the “concentrations that enhance binding of fl45-58” value (DegP^S210A [1]; DegPS210A 80 μM) was 10~ 80 µM and the “concentrations that interrupt the interaction of fl45-58” value (DegP^S210A [1]; DegPS210A 80 μM) was > 80 µM. For the same molecule, the “assembly of DegP cages” value (DegP^S210A [2]) was “assemble DegP cages”, the “reduction of the number of viable cells” value (E.coli imp4213 strain) was “two orders of magnitude” and the “increase of the cleavage rate compared with Lpp^+Leu and TMB_CKYRKL” value (DegP^WT) was “at least ten times more”. The “activation of DegP (cleavage rate of the reporter peptide)” value (DegP^WT; DegP 1 or 10 μM, increasing concentrations) was “activation was observed” and the “growth of wild-type E. coli W3110” value [3] was “did not inhibit growth”.
